# Source: patent US9237747B2, “Herbicidal compositions comprising 4-amino-3-chloro-5-fluoro-6-(4-chloro-2-fluoro-3-methoxyphenyl) pyridine-2-carboxylic acid or a derivative thereof and insecticides” (priority 2013, dated 2016)
# Where two headings read alike, the source gives them in different places.
# How the values were obtained:
# [1] = tested on: DIGSA; format: in vivo, Digitaria sanguinalis
# Protocol: (§1) Seeds or nutlets of the desired test plant species were planted in a soil matrix prepared by mixing a loam or sandy loam soil (e.g., 28.6 percent silt, 18.8 percent clay, and 52.6 percent sand, with a pH of about 5.8 and an organic matter content of about 1.8 percent) and calcareous grit in an 80 to 20 ratio. The soil matrix was contained in plastic pots with a volume of 1 quart and a surface area of 83.6 square centimeters (cm^2). […] The plants were grown for 8-22 days in a greenhouse with an approximate 14 hour (h) photoperiod which was maintained at about 29° C. during the day and 26° C. during the night. Nutrients (Peters Excel® 15-5-15 5-Ca 2-Mg and iron chelate) were applied in the irrigation solution as needed and water was added on a regular basis. Supplemental lighting was provided with overhead metal halide 1000-Watt lamps as necessary. The plants were employed for testing when they reached the first through fourth true leaf stage.
# (§2) Treatments consisted of the acid or esters of 4-amino-3-chloro-6-(4-chloro-2-fluoro-3-methoxyphenyl)-5-fluoropyridine-2-carboxylic acid (Compound A), each formulated as an SC (suspension concentrate), and various insecticidal components alone and in combination. Forms of compound A were applied on an acid equivalent basis.
# (§3) For treatments comprised of formulated compounds, measured amounts of compounds were placed individually in 25 mL glass vials and diluted in a volume of 1.25% volume per volume (v/v) Agri-Dex® crop oil concentrate to obtain 12× stock solutions. […] Application solutions were prepared by adding an appropriate amount of each stock solution (e.g., 1 mL) and diluted to the appropriate final concentrations with the addition of […] of an aqueous mixture of 1.25% (v/v) crop oil concentrate so that the final spray solutions contained 1.25+/−0.05% (v/v) crop oil concentrate.
# (§4) As required, additional water and/or 97:3 v/v acetone/DMSO was added to individual application solutions so that the final acetone and DMSO concentrations of the application solutions being compared were 8.1% and 0.25%, respectively.
# (§5) All stock solutions and applications solutions were visually inspected for compound compatibility prior to application. Spray solutions were applied to the plant material with an overhead Mandel track sprayer equipped with 8002E nozzles calibrated to deliver 187 L/ha over an application area of 0.503 square meters (m^2) at a spray height of 18 to 20 inches (46 to 50 cm) above average plant canopy height. Control plants were sprayed in the same manner with the solvent blank.
# (§6) The treated plants and control plants were placed in a greenhouse as described above and watered by sub-irrigation to prevent wash-off of the test compounds. After approximately 3 weeks, the condition of the test plants as compared to that of the untreated plants was determined visually and scored on a scale of 0 to 100 percent where 0 corresponds to no injury or growth inhibition and 100 corresponds to complete kill.
# (§7) Colby's equation was used to determine the herbicidal effects expected from the mixtures (Colby, S. R. Calculation of the synergistic and antagonistic response of herbicide combinations. Weeds 1967, 15, 20-22.).
# (§8) The following equation was used to calculate the expected activity of mixtures containing two active ingredients, A and B: Expected=A+B−(A×B/100)
# [2] = tested on: ECHCG; format: in vivo, Echinochloa crus-galli
# Protocol: as §1, §2, §3, §4, §5, §6, §7, §8
# [3] = tested on: IPOHE; format: in vivo, Ipomoea hederacea
# Protocol: as §1, §2, §3, §4, §5, §6, §7, §8
# [4] = tested on: LEFCH; test: whole plant or invertebrate; format: in vivo, Leptochloa chinensis
# Protocol: as §1, §2, §3, §4, §5, §6, §7, §8
# [5] = tested on: BRAPP; test: Postemergence foliar-applied weed control, direct-seeded rice (greenhouse); format: in vivo, Brachiaria platyphylla
# Excerpt: (§9) Seeds or nutlets of the desired test plant species were planted in a soil matrix prepared by mixing a loam or sandy loam soil (e.g., 28.6 percent silt, 18.8 percent clay, and 52.6 percent sand, with a pH of about 5.8 and an organic matter content of about 1.8 percent) and calcareous grit in an 80 to 20 ratio. The soil matrix was contained in plastic pots with a volume of 1 quart and a surface area of 83.6 square centimeters (cm^2). When required to ensure good germination and healthy plants, a fungicide treatment and/or other chemical or physical treatment was applied. The plants were grown for 8-22 days in a greenhouse with an approximate 14 hour (h) photoperiod which was maintained at about 29° C. during the day and 26° C. during the night. Nutrients (Peters Excel® 15-5-15 5-Ca 2-Mg and iron chelate) were applied in the irrigation solution as needed and water was added on a regular basis. Supplemental lighting was provided with overhead metal halide 1000-Watt lamps as necessary. The plants were employed for testing when they reached the first through fourth true leaf stage.
# as §2
# (§10) Treatment requirements were calculated based upon the rates being tested, the concentration of active ingredient or acid equivalent in the formulation, and a 12 milliliter (mL) application volume at a rate of 187 liters per hectare (L/ha).
# as §3, §4, §5, §6, §7, §8
# [6] = tested on: CYPIR; format: in vivo, Cyperus iria
# Excerpt: as §9, §2, §10, §3, §4, §5, §6, §7, §8
# [7] = tested on: CYPES; format: in vivo, Cyperus esculentus
# Protocol: as §1, §2, §3, §4, §5, §6, §7, §8
compound,measurement,setting,value
"CC1(C)C(C=C(Cl)Cl)C1C(=O)OC(C#N)c1cccc(Oc2ccccc2)c1 (racemic) [Cypermethrin, (RS)-α-cyano-3-phenoxybenzyl(1RS)-cis-trans-3-(2,2-dichlorovinyl)-2,2-dimethylcyclopropanecarboxylate, reference compound]",Visual Weed Control (%) - 21 DAA DIGSA Obs,[1]; 15 g ai/ha alone,0%
same,Visual Weed Control (%) - 21 DAA DIGSA Obs,[1]; 30 g ai/ha alone,0%
same,Visual Weed Control (%) - 21 DAA DIGSA Obs,[1]; 60 g ai/ha alone,0%
same,Visual Weed Control (%) - 22 DAA ECHCG Obs,[2]; 7.5 g ai/ha alone,0%
same,Visual Weed Control (%) - 22 DAA ECHCG Obs,[2]; 22.5 g ai/ha alone,0%
same,Visual Weed Control (%) - 22 DAA ECHCG Obs,[2]; 60 g ai/ha alone,0%
same,Visual Weed Control (%) - 22 DAA IPOHE Obs,[3]; 7.5 g ai/ha alone,0%
same,Visual Weed Control (%) - 22 DAA IPOHE Obs,[3]; 22.5 g ai/ha alone,0%
same,Visual Weed Control (%) - 22 DAA IPOHE Obs,[3]; 60 g ai/ha alone,0%
same,pest or weed control at […],"[4]; Dinebra chinensis, post-emergence, 528 h, 7.5 g ai/ha alone, read-out: Visual Weed Control (%) - 22 DAA LEFCH Obs",0%
same,pest or weed control at 22.5 g/ha,"[4]; Dinebra chinensis, post-emergence, 528 h, 22.5 g ai/ha alone, read-out: Visual Weed Control (%) - 22 DAA LEFCH Obs",0%
same,pest or weed control at 60 g/ha,"[4]; Dinebra chinensis, post-emergence, 528 h, 60 g ai/ha alone, read-out: Visual Weed Control (%) - 22 DAA LEFCH Obs",0%
CC1(C)[C@H](C(=O)O[C@H](C#N)c2cccc(Oc3ccccc3)c2)[C@@H]1/C=C(\Cl)C(F)(F)F (racemic) [Lambda cyhalothrin],Visual Weed Control (%) - 21 DAA ECHCG Obs,"[2]; 21 DAA, 35 g ai/ha alone",0%
same,Visual Weed Control (%) - 21 DAA IPOHE Obs,"[3]; 21 DAA, 35 g ai/ha alone",0%
"COP(=O)(NC(C)=O)SC (stereo not drawn) [Acephate, O,S-dimethyl acetylphosphoramidothioate]",Visual Weed Control (%) - 21 DAA BRAPP Obs,[5]; 140 g ai/ha alone,0%
same,Visual Weed Control (%) - 21 DAA BRAPP Obs,[5]; 280 g ai/ha alone,0%
same,Visual Weed Control (%) - 21 DAA BRAPP Obs,[5]; 560 g ai/ha alone,0%
same,Visual Weed Control (%) - 21 DAA CYPIR Obs,[6]; 140 g ai/ha alone,0%
same,Visual Weed Control (%) - 21 DAA CYPIR Obs,[6]; 280 g ai/ha alone,0%
same,Visual Weed Control (%) - 21 DAA CYPIR Obs,[6]; 560 g ai/ha alone,0%
same,Visual Weed Control (%) - 21 DAA IPOHE Obs,[3]; 280 g ai/ha alone,10%
"CNC(=O)Oc1cccc2ccccc12 [Carbaryl, 1-naphthalenyl N-methylcarbamate]",Visual Weed Control (%) - 20 DAA BRAPP Obs,[5]; 3 g ai/ha alone,0%
same,Visual Weed Control (%) - 20 DAA BRAPP Obs,[5]; 6 g ai/ha alone,0%
same,Visual Weed Control (%) - 20 DAA BRAPP Obs,[5]; 12 g ai/ha alone,0%
same,Visual Weed Control (%) - 20 DAA CYPES Obs,[7]; 24 g ai/ha alone,0%
same,Visual Weed Control (%) - 20 DAA CYPES Obs,[7]; 48 g ai/ha alone,0%
same,Visual Weed Control (%) - 20 DAA CYPES Obs,[7]; 96 g ai/ha alone,0%
same,Visual Weed Control (%) - 20 DAA CYPIR Obs,[6]; 3 g ai/ha alone,0%
same,Visual Weed Control (%) - 20 DAA CYPIR Obs,[6]; 6 g ai/ha alone,0%
same,Visual Weed Control (%) - 20 DAA CYPIR Obs,[6]; 12 g ai/ha alone,0%
same,Visual Weed Control (%) - 20 DAA DIGSA Obs,[1]; 3 g ai/ha alone,0%
same,Visual Weed Control (%) - 20 DAA DIGSA Obs,[1]; 6 g ai/ha alone,0%
same,Visual Weed Control (%) - 20 DAA DIGSA Obs,[1]; 12 g ai/ha alone,0%
same,Visual Weed Control (%) - 20 DAA DIGSA Obs,[1]; 24 g ai/ha alone,0%
same,Visual Weed Control (%) - 20 DAA DIGSA Obs,[1]; 48 g ai/ha alone,0%
same,Visual Weed Control (%) - 20 DAA DIGSA Obs,[1]; 96 g ai/ha alone,0%
same,Visual Weed Control (%) - 20 DAA ECHCG Obs,[2]; 3 g ai/ha alone,0%
same,Visual Weed Control (%) - 20 DAA ECHCG Obs,[2]; 6 g ai/ha alone,0%
same,Visual Weed Control (%) - 20 DAA ECHCG Obs,[2]; 12 g ai/ha alone,0%
same,Visual Weed Control (%) - 20 DAA IPOHE Obs,[3]; 6 g ai/ha alone,0%
same,Visual Weed Control (%) - 20 DAA IPOHE Obs,[3]; 12 g ai/ha alone,10%
same,Visual Weed Control (%) - 20 DAA LEFCH Obs,[4]; 3 g ai/ha alone,0%
same,Visual Weed Control (%) - 20 DAA LEFCH Obs,[4]; 6 g ai/ha alone,0%
same,Visual Weed Control (%) - 20 DAA LEFCH Obs,[4]; 12 g ai/ha alone,0%
"CNC(=O)Oc1cccc2c1OC(C)(C)C2 [Carbofuran, 2,3-dihydro-2,2-dimethylbenzofuran-7-yl methylcarbamate]",Visual Weed Control (%) - 20 DAA CYPES Obs,[7]; 125 g ai/ha alone,0%
same,Visual Weed Control (%) - 20 DAA CYPES Obs,[7]; 250 g ai/ha alone,0%
same,Visual Weed Control (%) - 21 DAA IPOHE Obs,[3]; 500 g ai/ha alone,0%
same,Visual Weed Control (%) - 21 DAA LEFCH Obs,[4]; 500 g ai/ha alone,0%
